Results reported in patent publication US12258540B2, “Environmentally compatible detergents for inactivation of lipid-enveloped viruses” (TAKEDA PHARMACEUTICAL COMPANY LIMITED, priority 2017, dated 2025).

Experiments:
aquatic organisms = conditions: Triton X-100 and its break-down products; recent ecological studies; cited from earlier work
pseudorabies virus (PRV) = format: cell-based; conditions: S/D treatment 0.04%-0.06% detergent, IVIG-containing liquid, 17° C.±1° C., FIG. 9A

4-(1,1,3,3-tetramethylbutyl)phenol, ethoxylated [Triton X-100]
endocrine disrupter behaviour in aquatic organisms (aquatic organisms): can potentially behave as endocrine disrupters in aquatic organisms

4-tert-octylbenzyl alcohol polyethoxylate
inactivation kinetics compared to Triton X-100, PRV (pseudorabies virus (PRV)): identical inactivation kinetics
